{"source": "patent US8241393B2", "about": "“Methods and articles for gold nanoparticle production” (The Curators of the University of Missouri, priority 2005, dated 2012)", "test": "Stabilization/storage of gold nanoparticles by exposure to a phosphino amino acid", "type": "physicochemical", "source_text": "In addition to tuning particle size, an important purpose of stabilizers is to prevent agglomeration and/or oxidation of the gold nanoparticles during storage. All of the stabilizers identified above have been discovered to provide beneficial stability for gold nanoparticles produced through methods of the invention. […] Carbohydrates are an additional stabilizer discovered to be useful with practice of methods of the invention. More than one stabilizer may be employed. Any selected stabilizer can be added at any time during the synthesis of the nanoparticles. Preferably, the stabilizer is present in solution prior to introduction of the final reactant (i.e., one or both of gold salt and phosphino amino acid are added to a solution that already contains a stabilizer).\nStill additional example methods of the invention are directed to methods for storing and/or stabilizing gold nanoparticles. It has been discovered the use of phosphino amino acids, with TAAC being a preferred example, provide beneficial levels of stability for storing gold nanoparticles. In an example method of the invention, gold nanoparticles (that may have been, for example, produced through a method other than one of the present invention) are exposed to a phosphino amino acid such as TAAC to prevent their agglomeration.", "data": [{"smiles": "CC(NCP(CNC(C)C(=O)O)CNC(C)C(=O)O)C(=O)O", "note": "(centres unmarked) [TAAC, trimeric alanine phosphine conjugate]", "values": [{"measurement": "protection of gold nanoparticles from oxidation", "value": "help “protect” gold nanoparticles from oxidation"}, {"measurement": "prevention of agglomeration of gold nanoparticles", "setting": "over periods of 7, 14 and even 30 days", "value": "substantially prevent agglomeration"}]}]}
